Assay results published in patent US4540708A, “Sulfenyl carbamate derivatives and insecticidal compositions containing the same” (priority 1982, dated 1985).
Like-named read-outs stand apart in the source and are kept apart here.

What was measured:
[1] = system: mites, eelworms and other agricultural and forestry noxious insects and household noxious insects; settings: known compounds, background; cited from earlier work
warm-blooded animals = settings: known compounds, background; cited from earlier work
[2] = system: tobacco cutworm (Spodoptera litura); experiment: Test Example 1: mortality of third-instar larvae of tobacco cutworm on cabbage, 3 days; assay type: in vivo; settings: 72 h
Protocol: Ten third-instar larvae of tobacco cutworm (Spodoptera litura) were placed on a cabbage (one-month-old seedling) planted in a pot, and a 50% emulsion of the compound to be tested was diluted to a specified concentration and applied to the leaves of the plant to fully wet them. The test compound of each specified concentration was tested on two pots.

[3] = system: green rice leafhopper (Nephotettix cincticeps); experiment: Test Example 2: mortality of female adults of green rice leafhopper on paddy rice, 3 days; assay type: in vivo; settings: 72 h
Protocol: An emulsion of specified concentration was prepared from a 50% wettable powder of the compound to be tested and applied to the leaves of paddy rice (one-month-old seedlings) planted in a pot to fully wet the leaves. After the emulsion had been dried, the pot was covered with a net cage, into which 10 female adults of green rice leafhopper (Nephotettix cincticeps) were released. The compound of each specified concentration was tested on two pots.

[4] = Test Example 4: acute toxicity by oral administration in male mice (Litchfield-Wilcoxon); set-up: unit not given here; settings: mouse, in vivo, mortality on the seventh day
Protocol: Compounds of this invention were tested on male mice for acute toxicity by oral administration.

[5] = 125 ppm active ingredient, 3 days, read-out: Mortality
[6] = 250 ppm active ingredient, 3 days, read-out: Mortality
[7] = 200 ppm active ingredient, 3 days, read-out: Mortality
[8] = 400 ppm active ingredient, 3 days, read-out: Mortality
[9] = 800 ppm active ingredient, 3 days, read-out: Mortality
[10] = 500 ppm active ingredient, 3 days, read-out: Mortality
[11] = 1000 ppm active ingredient, 3 days, read-out: Mortality

| SMILES | insecticidal activity (in words) [1] | toxicity to warm-blooded animals (in words) (warm-blooded animals) | mortality at 125 ppm [2, 5] | mortality at 250 ppm [2, 6] | mortality at 200 ppm [3] | mortality at 400 ppm [3] | mortality at 800 ppm [3] | mortality at 125 ppm [2] | mortality at 250 ppm [2] | mortality at 500 ppm [2] | mortality at 1000 ppm [2] | LD50 at 168 h [4] | mortality at 200 ppm [3, 7] | mortality at 400 ppm [3, 8] | mortality at 800 ppm [3, 9] | mortality at 500 ppm [2, 10] | mortality at 1000 ppm [2, 11] |
| --- | --- | --- | --- | --- | --- | --- | --- | --- | --- | --- | --- | --- | --- | --- | --- | --- | --- |
| CNC(=O)Oc1cccc2c1OC(C)(C)C2 [Control 1, 2,3dihydro-2,2-dimethylbenzofuran-7-yl-N--methylcarbamate] | high insecticidal activity | high toxicity to warm-blooded animals |  |  |  |  |  |  |  |  |  |  |  |  |  |  |  |
| CNC(=O)ON=C(C)SC [Control*, S--methyl N--[(methylcarbamoyl)oxy]thioacetimidate] |  | high toxicity to warm-blooded animals |  |  |  |  |  |  |  |  |  |  |  |  |  |  |  |
| CNC(=O)ON=C(C)SC [Control*] |  |  | 85% | 90% |  |  |  |  |  |  |  |  |  |  |  |  |  |
| COCCCN(CCC(=O)OC)SN(C)C(=O)Oc1cccc2c1OC(C)(C)C2 [Example 1, 2,3-dihydro-2,2-dimethylbenzofuran-7-yl N-[N-(3-methoxypropyl)-N-methoxycarbonylethylaminosulfenyl]N-methyl carbamate] |  |  |  |  | 70% | 90% | 100% | 40% | 65% | 80% | 90% |  |  |  |  |  |  |
| COCCN(CCC#N)SN(C)C(=O)Oc1cccc2c1OC(C)(C)C2 [Example 2, 2,3-dihydro-2,2-dimethylbenzofuran-7-yl N-[N-(2-methoxyethyl)-N-cyanoethylaminosulfenyl]N-methyl-carbamate] |  |  |  |  | 65% | 85% | 100% | 40% | 55% | 70% | 85% | 98000 |  |  |  |  |  |
| COCCN(CCC(=O)OC)SN(C)C(=O)ON=C(C)SC [Example 3, S-methyl N-[{N-methyl-N-(N-methoxyethyl-N-methoxycarbonylethylaminosulfenyl)carbamoyl}oxy]-thioacetimidate] |  |  | 55% | 70% |  |  |  |  |  |  |  |  | 65% | 90% | 100% | 85% | 90% |
| COCCN(CC(=O)OC)SN(C)C(=O)Oc1cccc2c1OC(C)(C)C2 [Example 4] |  |  |  |  | 75% | 95% | 100% | 45% | 65% | 80% | 90% | 90000 |  |  |  |  |  |
| COCCN(CC#N)SN(C)C(=O)Oc1cccc2c1OC(C)(C)C2 [Example 5] |  |  |  |  | 70% | 90% | 100% | 50% | 70% | 80% | 90% | 68000 |  |  |  |  |  |
| CCOC(=O)CN(CCCOC)SN(C)C(=O)Oc1cccc2c1OC(C)(C)C2 [Example 6] |  |  |  |  | 70% | 95% | 100% | 55% | 70% | 80% | 90% |  |  |  |  |  |  |
| COC(=O)CCN(CCCOc1ccccc1)SN(C)C(=O)Oc1cccc2c1OC(C)(C)C2 [Example 7] |  |  |  |  | 60% | 80% | 100% | 40% | 60% | 75% | 85% |  |  |  |  |  |  |
| CCOCCN(CCC(=O)OC)SN(C)C(=O)Oc1cccc2c1OC(C)(C)C2 [Example 8] |  |  |  |  | 75% | 90% | 100% | 40% | 60% | 80% | 90% |  |  |  |  |  |  |
| COC(=O)CCN(CCOC(C)C)SN(C)C(=O)Oc1cccc2c1OC(C)(C)C2 [Example 9] |  |  |  |  | 75% | 90% | 100% | 40% | 60% | 80% | 90% |  |  |  |  |  |  |
| COC(=O)CCN(CCOC1CCCCC1)SN(C)C(=O)Oc1cccc2c1OC(C)(C)C2 [Example 10] |  |  |  |  | 65% | 85% | 100% | 35% | 50% | 70% | 85% |  |  |  |  |  |  |
| CC(C)OCCCN(CCC#N)SN(C)C(=O)Oc1cccc2c1OC(C)(C)C2 [Example 11] |  |  |  |  | 70% | 90% | 100% | 35% | 50% | 70% | 80% |  |  |  |  |  |  |
| CCCCOC(=O)CCN(CCOC)SN(C)C(=O)Oc1cccc2c1OC(C)(C)C2 [Example 12] |  |  |  |  | 70% | 85% | 100% | 40% | 55% | 75% | 85% |  |  |  |  |  |  |
| COC(=O)CCN(CCOCc1ccccc1)SN(C)C(=O)Oc1cccc2c1OC(C)(C)C2 [Example 13] |  |  |  |  | 65% | 85% | 100% | 40% | 55% | 70% | 85% |  |  |  |  |  |  |
| COC(=O)CCN(CCCCOc1ccccc1)SN(C)C(=O)Oc1cccc2c1OC(C)(C)C2 [Example 14] |  |  |  |  | 65% | 85% | 100% | 35% | 50% | 70% | 80% |  |  |  |  |  |  |
| COC(=O)CCN(CCCCCOc1ccccc1)SN(C)C(=O)Oc1cccc2c1OC(C)(C)C2 [Example 15] |  |  |  |  | 65% | 80% | 100% | 40% | 50% | 70% | 80% |  |  |  |  |  |  |
| COCCCN(CCC(=O)OC)SN(C)C(=O)ON=C(C)SC [Example 16] |  |  | 100% | 100% |  |  |  |  |  |  |  |  | 90% | 100% | 100% | 100% | 100% |
| COCCN(CCC#N)SN(C)C(=O)ON=C(C)SC [Example 17] |  |  | 85% | 95% |  |  |  |  |  |  |  |  | 80% | 95% | 100% | 100% | 100% |
| COCCN(CC#N)SN(C)C(=O)ON=C(C)SC [Example 18] |  |  | 100% | 100% |  |  |  |  |  |  |  |  | 80% | 95% | 100% | 100% | 100% |
| CCOC(=O)CN(CCOC)SN(C)C(=O)ON=C(C)SC [Example 19] |  |  | 90% | 100% |  |  |  |  |  |  |  |  | 90% | 100% | 100% | 100% | 100% |
| COC(=O)CCN(CCCOc1ccccc1)SN(C)C(=O)ON=C(C)SC [Example 20] |  |  | 90% | 95% |  |  |  |  |  |  |  |  | 80% | 90% | 100% | 100% | 100% |
| COC(=O)CCN(CCOC(C)C)SN(C)C(=O)ON=C(C)SC [Example 21] |  |  | 100% | 100% |  |  |  |  |  |  |  |  | 85% | 100% | 100% | 100% | 100% |
| COC(=O)CCN(CCOC1CCCCC1)SN(C)C(=O)ON=C(C)SC [Example 22] |  |  | 90% | 100% |  |  |  |  |  |  |  |  | 80% | 95% | 100% | 100% | 100% |
| CSC(C)=NOC(=O)N(C)SN(CCC#N)CCCOC(C)C [Example 23] |  |  | 85% | 95% |  |  |  |  |  |  |  |  | 80% | 95% | 100% | 100% | 100% |
| CCCCOC(=O)CCN(CCOC)SN(C)C(=O)ON=C(C)SC [Example 24] |  |  | 80% | 95% |  |  |  |  |  |  |  |  | 85% | 95% | 100% | 100% | 100% |
| COC(=O)CCN(CCCCOc1ccccc1)SN(C)C(=O)ON=C(C)SC [Example 25] |  |  | 80% | 90% |  |  |  |  |  |  |  |  | 85% | 90% | 100% | 100% | 100% |
